Laboratory results taken from PubChem BioAssay AID696 (Sanford-Burnham Center for Chemical Genomics, 2007).
pEC50: −log10 of the molar value.

These molecules were tested against Alkaline phosphatase, placental type (Homo sapiens) (UniProt P05187) (assay: PLAP enzyme activators, biochemical, luminescence, HTS (AID 696)). Conditions: purified PLAP enzyme, luminescent substrate read-out.
Chain of Alkaline phosphatase, placental type (Homo sapiens) (P05187 whole entry, looked up): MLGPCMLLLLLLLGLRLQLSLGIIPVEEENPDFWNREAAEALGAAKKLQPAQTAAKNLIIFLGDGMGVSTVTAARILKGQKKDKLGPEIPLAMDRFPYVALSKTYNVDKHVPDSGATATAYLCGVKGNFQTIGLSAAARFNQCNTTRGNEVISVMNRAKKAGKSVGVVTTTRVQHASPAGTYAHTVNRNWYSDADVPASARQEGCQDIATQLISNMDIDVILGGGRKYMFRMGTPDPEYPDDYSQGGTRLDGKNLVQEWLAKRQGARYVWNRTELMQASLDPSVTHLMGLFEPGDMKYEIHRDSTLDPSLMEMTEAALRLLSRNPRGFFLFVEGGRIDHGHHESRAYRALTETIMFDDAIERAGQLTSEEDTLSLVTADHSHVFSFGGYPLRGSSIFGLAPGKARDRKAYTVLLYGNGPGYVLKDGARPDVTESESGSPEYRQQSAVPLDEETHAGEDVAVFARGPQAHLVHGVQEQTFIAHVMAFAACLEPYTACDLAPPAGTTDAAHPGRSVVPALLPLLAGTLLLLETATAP

Row | SMILES | pEC50
1 | COc1ccc(-c2nnc(-c3ccc(Br)o3)o2)cc1OC | 4.59
2 | CCCn1c(C(O)c2ccc3c(c2)OCO3)nc2ccccc21 (centres undefined) | 4.75
3 | COc1cccc(NCc2cc3c(C(C)(C)C)nn(-c4ccccc4)c3[nH]c2=O)c1 | 4.11
4 | CC1CC(C)CN(CC(C)(C)NS(=O)(=O)c2ccc(Cl)cc2)C1 (centres undefined) | 4.61
5 | O=P(/C(=N/O)N1CCCCC1)(N1CCOCC1)N1CCOCC1 | 4.26
6 | Cc1ccc(C)c(NC(=S)NC(NC(=O)Cc2cccc3ccccc23)C(Cl)(Cl)Cl)c1 (centres undefined) | 4.20
7 | CCOc1ccc(CNC(=S)N/N=C\c2ccc([N+](=O)[O-])cc2)cc1 | 4.96
8 | CC(C)n1c(-c2ccc(N(C)C)cc2)nc2ccccc21 | 5.07
9 | Cc1nn(C)cc1/C=N\NC(=O)c1ccc2c(c1)c(C)c(C)n2Cc1ccccc1 | 4.14
10 | CCC(=O)Nc1ccccc1C(=O)OCC(=O)c1ccccc1 | 4.41
11 | COC(=O)c1cn[nH]c1NC(=S)Nc1ccccc1C | 4.68
12 | c1ccc(Nc2cccc(Nc3ccccc3)n2)cc1 | 4.43
13 | O=C(C[n+]1cc2ccccc2c2ccccc21)c1ccccc1 | 4.03
14 | N#CC(c1ccc(F)cc1)c1ccc(C(=O)c2ccccc2)cc1 (centres undefined) | 5.10
15 | Cc1cccc(N2C(=O)NC(=O)/C(=C\c3cnn(-c4ccccc4)c3)C2=O)c1 | 5.96
16 | O=C1Nc2ccc(Br)cc2/C1=N/N=C/C1=C(N2CCOCC2)C(=C\c2ccccc2)/CC1 | 4.42
17 | COc1cccc(NC(=O)c2nnn(CCc3ccccc3)c2N)c1 | 4.08
18 | c1ccc(CSCCc2ccncc2)cc1 | 4.17
19 | O=C(NC1(C(F)(F)F)Oc2ccc(Cl)cc2O1)N1CCC2(CC1)OCCO2 (centres undefined) | 4.21
20 | Cc1ccc(-n2c([O-])nc(-[n+]3ccccc3)c2C=O)cc1 | 5.04

Row | SMILES | pEC50
21 | O=C(Cn1c(=O)n(-c2ccccc2)c(=O)c2sccc21)N1CCCC1 | 5.58
22 | CCn1c(SCC(=O)c2ccc(O)c(O)c2)nnc1-c1ccccc1 | 4.10
23 | CC1Cc2ccccc2N1C(=O)CSc1nnc(Cc2ccccc2)n1CCc1ccccc1 (centres undefined) | 4.06
24 | CCCCOC(=O)C(C)Nc1n[nH]c(=S)[nH]c1=O (centres undefined) | 4.67
25 | O=[N+]([O-])c1ccc(Sc2nnnn2-c2ccccc2)c(Cl)c1 | 4.58
26 | O=C(Cn1c(=O)oc2cc(S(=O)(=O)N3CCCC3)ccc21)NCc1ccc(F)cc1 | 6.34
27 | O=C(Nc1ccccc1)NC1(C(=O)N2CCN(C(=O)c3ccco3)CC2)CCCCC1 | 4.45
28 | CC(C)N=c1scc(-c2ccco2)n1/N=C/c1ccc(O)c(O)c1 | 4.32
29 | Cc1ccc(/C=N/NC(=O)c2c[nH]c3ccccc23)o1 | 4.23
30 | N#CC(c1ccc(F)cc1)c1ccc(C(=O)c2ccc(F)cc2)cc1 (centres undefined) | 4.64
31 | Cc1ccc(C2CC(c3ccc(Cl)cc3)=NNC2=O)cc1 (centres undefined) | 6.69
32 | CCCCN1CCc2c1nc1ccc(Br)cc1c2N | 4.11
33 | COc1ccc(-c2cc(NCc3ccccn3)n3ncnc3n2)cc1 | 4.18
34 | CCCn1c(CNc2ccc(Br)cc2)nc2ccccc21 | 4.31
35 | CCOC(=O)c1c(C)[nH]c(C(=O)CSc2nnc(CC(C)c3ccccc3)o2)c1C (centres undefined) | 4.11
36 | Clc1ccc(-c2cc(CSc3cccc(Cl)c3)on2)cc1 | 4.16
37 | Cc1cc(Nc2ccc(Cl)cc2)n(-c2cccc(Cl)c2)n1 | 4.29
38 | O=P(CCCCCCCCCP(=O)(c1ccccc1)c1ccccc1)(c1ccccc1)c1ccccc1 | 4.00
39 | O=C(Oc1ccc2c(=O)c(Oc3ccc4ccccc4c3)coc2c1)c1cncc(Br)c1 | 4.13
